Patent publication US20180318241A1, “TREATMENT OF NERVOUS SYSTEM DISORDERS USING THYROID HORMONE NEUTRAL DOSES OF RXR AGONISTS” (Io Therapeutics, Inc., priority 2015, published 2018)
Entries after “also recorded” stand apart in the source; their conditions may differ.

How the values were obtained:
RXRγ = biological target: T1, RXRγ (Homo sapiens, UniProt P48443); assay: RXR homodimer transactivation assay (rCRBPII/RXRE-tk-Luc) in CV-1 cells; assay type: cell-based
T1 construct: an expression construct including a full length RXRα, RXRβ, or RXRγ; expressed in transfected cells; host or cells: CV-1
T1 sequence (P48443 1-463): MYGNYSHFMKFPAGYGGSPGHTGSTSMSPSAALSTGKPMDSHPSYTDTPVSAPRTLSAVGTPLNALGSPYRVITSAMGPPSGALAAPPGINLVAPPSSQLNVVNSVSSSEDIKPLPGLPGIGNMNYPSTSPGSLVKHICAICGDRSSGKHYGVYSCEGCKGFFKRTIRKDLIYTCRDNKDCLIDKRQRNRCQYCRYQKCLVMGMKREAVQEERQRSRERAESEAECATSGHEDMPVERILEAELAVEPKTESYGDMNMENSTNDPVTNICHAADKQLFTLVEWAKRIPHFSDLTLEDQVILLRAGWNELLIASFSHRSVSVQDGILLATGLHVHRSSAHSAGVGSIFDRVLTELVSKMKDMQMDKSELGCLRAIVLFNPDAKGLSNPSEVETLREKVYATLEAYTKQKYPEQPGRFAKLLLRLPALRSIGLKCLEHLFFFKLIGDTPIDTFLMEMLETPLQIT
Experimental: To determine whether a RXR agonist can mediate its effects via RXRα receptor homodimers, RXRβ receptor homodimers, RXRγ receptor homodimers, or any combination thereof, or the corresponding RAR/RXR heterodimers, receptor-mediated transactivation assays were performed. For transactivation assays assessing RXR homodimer signaling, CV-1 cells were transfected with 1) an expression construct including a full length RXRα, RXRβ, or RXRγ; and 2) a rCRBPII/RXRE-tk-Luc reporter construct that included RXR homodimer-specific RXRE/DR1 responsive element linked to a luciferase gene. For transactivation assays assessing RAR/RXR heterodimer signaling, CV-1 cells were transfected with 1) an expression construct comprising a fusion protein including an estrogen receptor (ER) DNA binding domain linked to the ligand binding domain of RARα, RARβ, or RARγ and 2) a ERE-tk-Luc reporter construct that included an estrogen receptor responsive element linked to a luciferase gene. The ER-RAR fusion proteins provided an accurate readout of only the transfected ER-RAR. […] Data are mean values±SE from five independent experiments.

RARα = RARα (Homo sapiens, UniProt P10276); settings: RARs (α, β, γ), at ≥1 μM
Chain of RARα (P10276 183-417 limits assumed, species assumed): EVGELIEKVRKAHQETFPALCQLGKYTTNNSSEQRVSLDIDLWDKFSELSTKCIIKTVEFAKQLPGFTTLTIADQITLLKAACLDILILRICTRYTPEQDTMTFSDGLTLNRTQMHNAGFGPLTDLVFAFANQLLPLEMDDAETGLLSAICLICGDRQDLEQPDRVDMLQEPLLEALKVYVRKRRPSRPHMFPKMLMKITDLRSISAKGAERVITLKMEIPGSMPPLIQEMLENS
Experimental: To determine whether a RXR agonist can mediate its effects via RXRα receptor homodimers, RXRβ receptor homodimers, RXRγ receptor homodimers, or any combination thereof, or the corresponding RAR/RXR heterodimers, receptor-mediated transactivation assays were performed. For transactivation assays assessing RXR homodimer signaling, CV-1 cells were transfected with 1) an expression construct including a full length RXRα, RXRβ, or RXRγ; and 2) a rCRBPII/RXRE-tk-Luc reporter construct that included RXR homodimer-specific RXRE/DR1 responsive element linked to a luciferase gene. For transactivation assays assessing RAR/RXR heterodimer signaling, CV-1 cells were transfected with 1) an expression construct comprising a fusion protein including an estrogen receptor (ER) DNA binding domain linked to the ligand binding domain of RARα, RARβ, or RARγ and 2) a ERE-tk-Luc reporter construct that included an estrogen receptor responsive element linked to a luciferase gene. […] Data are mean values±SE from five independent experiments.

EAE in B6 mice = assay: EAE dose titration in B6 mice with spleen and CNS analysis; assay type: in vivo; settings: 200 μg/day vs vehicle
Experimental: A dose titration experiment was also conducted in EAE mice. EAE was induced in 28 B6 mice with MOG/CFA and PT as above. Mice were scored on day 7 as indicated above and divided into groups by score so means are as equal as possible.
At the completion of the experiment, the vehicle control and 200 μg/day groups were euthanized and spleen and CNS samples obtained.

EAE in SJL mice = assay: EAE in SJL mice; assay type: in vivo; settings: 50 μg i.p. every other day, day 8 to day 14
Experimental: To determine whether a RXR agonist can attenuate multiple sclerosis, SJL mice were immunized to induce EAE by s.c. injection at the base of their spine with 200 μL of adjuvant containing 200 μg proteolipid proteins (139-151) (PLP peptide; Peptides International, Louisville, Ky.) and 400 μg of non-viable M. tuberculosis H37 desiccate emulsified in a mixture of incomplete Freund's adjuvant and PBS. Mice were also given 150 ng of pertussis toxin in PBS i.p. on the same day as PLP emulsion injection and 2 days later. […] Mice were scored using the scale described in Example 3.

FXR/RXR = biological target: T2, FXR/RXR (Homo sapiens, UniProt P19793); assay: Permissive heterodimer transactivation assay in CV-1 cells; assay type: cell-based; settings: 20 hr, relative to GW4064
T2 construct: expressed in transfected cells; host or cells: CV-1
T2 sequence (P19793 1-462): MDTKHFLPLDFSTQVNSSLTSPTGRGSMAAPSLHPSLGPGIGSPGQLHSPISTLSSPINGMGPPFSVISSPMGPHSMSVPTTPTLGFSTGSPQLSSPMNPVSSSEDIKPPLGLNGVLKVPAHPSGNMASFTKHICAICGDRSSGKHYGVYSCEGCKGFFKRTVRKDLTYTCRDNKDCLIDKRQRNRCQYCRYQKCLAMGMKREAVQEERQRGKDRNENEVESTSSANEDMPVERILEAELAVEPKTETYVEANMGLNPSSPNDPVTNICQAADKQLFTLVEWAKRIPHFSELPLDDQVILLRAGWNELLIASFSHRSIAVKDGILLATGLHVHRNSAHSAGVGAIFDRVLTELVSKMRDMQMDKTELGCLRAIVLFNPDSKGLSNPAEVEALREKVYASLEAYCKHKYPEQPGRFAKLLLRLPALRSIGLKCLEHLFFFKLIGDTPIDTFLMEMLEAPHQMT
T2 sequence (Q96RI1 1-486 partner): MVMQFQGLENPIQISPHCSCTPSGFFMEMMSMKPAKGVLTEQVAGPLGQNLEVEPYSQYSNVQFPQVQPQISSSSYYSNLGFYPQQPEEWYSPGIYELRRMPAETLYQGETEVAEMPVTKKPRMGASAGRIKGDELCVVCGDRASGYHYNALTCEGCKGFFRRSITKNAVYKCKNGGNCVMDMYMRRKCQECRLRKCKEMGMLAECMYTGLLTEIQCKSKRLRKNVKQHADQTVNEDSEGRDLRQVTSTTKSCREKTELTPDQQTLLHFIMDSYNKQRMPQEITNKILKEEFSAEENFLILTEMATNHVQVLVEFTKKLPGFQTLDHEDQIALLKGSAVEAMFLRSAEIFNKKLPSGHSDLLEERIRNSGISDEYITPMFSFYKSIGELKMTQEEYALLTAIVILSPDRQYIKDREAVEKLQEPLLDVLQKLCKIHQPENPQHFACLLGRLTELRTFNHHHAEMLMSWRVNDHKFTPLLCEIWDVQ
Text: (§1) For PPARγ: CV-1 cells were transfected with 3×(rAOX/DR1)-tk-Luc reporter gene and an expression vector for PPARγ. For FXR:CV-1 cells were transfected with 3×(IBABP/IRI)-tk-Luc reporter gene and vectors for FXR and RXRα. For LXR:CV-1 cells were transfected with 3×(PLTP/LXRE)-tk-Luc reporter gene with vectors for LXRα or LXRβ. For Nurr1: COS7 cells were transfected with 3×NBRE-tk-luc reporter gene and full length Nurr-1 with or without full-length RXRα plasmid. […] Luciferase data were normalized to co-transfected β-gal activity. Luciferase activity was expressed as percent of maximal activity obtained using specific agonists. Rosiglitazone (PPARγ), GW4064 (FXR), T0901317 (LXR).

LXRα/RXR = assay: as above; assay type: cell-based; settings: 20 hr, relative to T0901317
Text: as §1

LXRβ/RXR = assay: as above; assay type: cell-based; settings: 20 hr, relative to T0901317
Text: as §1

Nurr1/RXR = Nurr1/RXR (Homo sapiens, UniProt P19793); assay: Permissive heterodimer transactivation assay in COS7 cells; assay type: cell-based
Chain of Nurr1/RXR (P43354 whole entry partner, one chain of several): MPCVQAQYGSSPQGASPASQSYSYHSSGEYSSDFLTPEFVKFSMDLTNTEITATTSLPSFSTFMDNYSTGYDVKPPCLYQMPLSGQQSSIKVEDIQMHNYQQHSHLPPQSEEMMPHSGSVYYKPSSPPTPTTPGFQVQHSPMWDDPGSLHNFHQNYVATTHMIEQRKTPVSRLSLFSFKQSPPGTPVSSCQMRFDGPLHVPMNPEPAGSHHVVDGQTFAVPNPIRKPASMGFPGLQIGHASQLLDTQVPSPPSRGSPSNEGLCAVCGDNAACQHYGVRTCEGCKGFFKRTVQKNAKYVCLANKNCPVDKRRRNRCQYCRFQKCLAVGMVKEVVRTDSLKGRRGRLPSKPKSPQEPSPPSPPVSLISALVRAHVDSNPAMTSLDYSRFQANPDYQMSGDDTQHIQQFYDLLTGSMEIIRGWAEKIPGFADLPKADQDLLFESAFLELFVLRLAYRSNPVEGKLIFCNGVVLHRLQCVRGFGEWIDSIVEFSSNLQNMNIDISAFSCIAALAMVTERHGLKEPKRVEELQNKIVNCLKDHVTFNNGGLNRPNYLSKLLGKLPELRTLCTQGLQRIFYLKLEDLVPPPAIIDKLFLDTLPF
Text: as §1

[1] = test system: oligodendrocyte precursor cells (OPCs); assay: OPC differentiation into oligodendrocytes (PLP-EGFP); assay type: cell-based, mouse
Text: OPCs were generated from a neurosphere culture of E14.5 PLP-EGFP (on C57BL/6J background) mouse brains. […] The EGFP expressing cells were quantified with Cellomics Neuronal Profiling Algorithm.
The EGFP expressing cells in controls and all compounds were quantified with Cellomics Neuronal Profiling Algorithm.

[2] = test system: ethidium bromide induced demyelination of caudal cerebellar peduncles in rats; assay: Focal ethidium bromide induced demyelination, remyelination analysis; assay type: in vivo, rat
Experimental: The experiment uses rats of relatively advanced age (1 year) since such rats undergo remyelination in a less efficient manner, thereby providing data that are more relevant to the clinical treatment of human patients with multiple sclerosis or other demyelination disorders.
Focal demyelination is induced in one year old rats (approximately 300 g in weight) by injecting stereotactically 5 μl of ethidium bromide solution (0.01% vol/vol in saline) in a bilateral manner into the caudal cerebellar peduncles (CCP). […] The rats are killed on day 24 post-ethidium bromide treatment for analysis of remyelination by quantitative polymerase chain reaction (qPCR) and microscopy. Serum T4 levels are determined before initiation of treatment and weekly thereafter and at study termination.

[3] = test system: cuprizone+rapamycin demyelination in C57BL/6J mice; assay: Cuprizone/rapamycin 12-week demyelination model, remyelination; assay type: in vivo, mouse; settings: 10 mg/kg PO daily for 6 weeks after 12 weeks CR
Text: All animals were sacrificed after 12 weeks of CR or after further 6 weeks of treatment to evaluate myelin in white matter (corpus callosum) and gray matter (hippocampus and cortex). In addition, the size of myelinated axons was quantified and the large myelinated axons were further assessed by 3D-electron microscopy (3D-EM). A total of 40 animals were included in the study, where all 40 animals received CR demyelination for 12 weeks. After demyelination, a subset (n=10) of animals are sacrificed to serve as controls to assess baseline demyelination. […] Floating brain sections are immunostained with myelin prolipid protein (PLP) to visualize and quantify myelin in gray matter, hippocampus (FIG. 16A) and cortex (FIG. 16B).

[4] = test system: cuprizone+rapamycin demyelination in C57BL/6J mice; assay type: in vivo; settings: 6 weeks concurrent with CR
Text: Animals (8 week-old male C57BL/6J mice) were subjected to cuprizone diet plus rapamycin injections (CR) for 6 weeks to induce demyelination. […] All animals were sacrificed after 6 weeks of CR to evaluate axonal integrity and microglial/macrophage activity in the white matter (corpus callosum, CC).
A total of 50 animals were included in the study, where 43 animals received CR demyelination for 6 weeks. During demyelination, a subset (n=7) of animals were kept on normal diet to serve as naïve age-matched controls.

[5] = test system: multiple sclerosis (MS) patients; assay: Placebo-controlled clinical trial of thyroid hormone neutral doses in relapsing-remitting MS; assay type: in vivo, human; settings: 30 to 180 days
Experimental: Patients with relapsing-remitting MS are recruited to participate in the clinical trial and are provided informed consent describing risks and potential benefits of participation. […] Patients are dosed for a minimum of 30 days, and as long as 180 days. […] Serum T4 levels will continue to be determined on a weekly basis.
Patients are assessed for the status of myelin damage and speed of repair of demyelination in MS lesions that occur over this period of time in their brains, spinal cords, and/or optic nerves. Quantitation of myelin damage and repair is performed at baseline and periodically through the dosing, using specialized imaging methods, which specifically examine and quantitate myelin damage and repair in these parts of the nervous system. […] This compound is useful for useful for quantitating myelin repair. […] In addition to the quantitation of myelin damage and repair by imaging methods, the clinical status of the MS patients' disease progression is preliminarily evaluated using standard clinical endpoints for MS clinical trials, such as the Expanded Disability Status Scale (EDSS). The EDSS is a 10 point scale which quantitates the MS patients' levels of disability by evaluating physical activities of daily life, such as walking, swallowing, bowel and bladder function, etc.

Q: Which “Efficacy (% of 1 μM IRX4204) RXRγ” value (RXRγ) does the source give for `CC(/C=C/[C@@H]1C[C@]1(C)c1ccc2c(c1)C(C)(C)CCC2(C)C)=C\C(=O)O` [IRX4204, 3,7-dimethyl-6(S),7(S)-methano,7-[1,1,4,4-tetramethyl-1,2,3,4-tetrahydronaphth-7-yl]2(E),4(E) heptadienoic acid] here?
A: 0.09 ± 0.011 % of 1 μM IRX4204

Q: What about the “activity detected at RARs” value (RARα) of the same compound?
A: minimal activity

Q: And the “co-expression of IFNγ and IL-17A by CD4 T cells in CNS” value (EAE in B6 mice)?
A: not significantly different

Q: What about the “CCR6 expression on CD4 T cells” value (EAE in B6 mice; spleen) of the same compound?
A: lowered

Q: What about the “CD4+CD25hi cells (number)” value (EAE in B6 mice; spleen) of the same compound?
A: reduced

Q: What about the “CD4+CD25hi cells frequency” value (EAE in B6 mice; spleen) of the same compound?
A: not altered

Q: What about the “CD49d expression on CD4 T cells” value (EAE in B6 mice; spleen) of the same compound?
A: lowered CCR6, but not CD49d

Q: What about the “total number of recently activated CD4 T cells (CD69 and CD44)” value (EAE in B6 mice; spleen) of the same compound?
A: decreased

Q: What about the “symptoms of EAE” value (EAE in SJL mice) of the same compound?
A: significantly reduces the symptoms of EAE

Q: What about the “activation of FXR/RXR heterodimer” value (FXR/RXR) of the same compound?
A: not to transactivate; also recorded: does not activate

Q: And the “activation of LXRα/RXR heterodimer” value (LXRα/RXR)?
A: not to transactivate; also recorded: does not activate

Q: And the “activation of LXRβ/RXR heterodimer” value (LXRβ/RXR)?
A: not to transactivate; also recorded: does not activate

Q: What about the “activation of the Nurr1/RXR permissive heterodimer” value (Nurr1/RXR) of the same compound?
A: selectively activates

Q: And the “total cell number and pyknotic cells compared to controls” value [1]?
A: did not show any differences

Q: What about the “OPC differentiation into oligodendrocytes (EGFP positive cells) compared to negative control (DMSO)” value ([1]; all tested concentrations except the lowest concentration (1^−6 μM)) of the same compound?
A: significant increase in OPC differentiation into oligodendrocytes; also recorded: dose dependent increase

Q: What about the “Mbp and Pdgfra expression (real-time qPCR of lesion samples)” value [2] of the same compound?
A: increase in Mbp expression and an increase in Pdgfra expression

Q: What about the “densities of Olig2+ oligodendrocyte lineage cells and CC1+ differentiated oligodendrocytes in lesions” value ([2]; oral 1-10 mg/kg/day for fourteen days, relative to vehicle) of the same compound?
A: increased

Q: What about the “size of myelinated axons in the corpus callosum” value [3] of the same compound?
A: significant increase

Q: And the “levels of Iba1 staining (microglia/macrophages) in CC compared to vehicle” value [4]?
A: no difference

Q: What about the “number of SMI32 stained axonal ovoids in CC compared to Vehicle” value [4] of the same compound?
A: trend towards decreased number of axonal ovoids

Q: What about the “clinical benefit (myelin imaging, EDSS, visual acuity) compared to placebo controls” value [5] of the same compound?
A: Substantial clinical benefit
